Laboratory results: US20240251792A1, “WEED CONTROL METHOD” (SYNGENTA CROP PROTECTION AG, priority 2021, published 2024)
Read-outs that look alike come from different tables or passages of the source.

Assays:
Format in all cases: in vivo
DIGSA [1] = test: Biological efficacy, post-emergence glasshouse test (Table 2); details: 1000 g/ha, after 12 days
Procedure: (§1) Seeds of a variety of test species were shown in unsterilised compost in small pots. After cultivation for one day (pre-emergence) or seven days (post-emergence) in controlled conditions in the glasshouse (at 24/16° C., day/night; 14 hours light; 65% humidity) the plants were sprayed with 1 mg of the active ingredient, formulated in 466 μl of a acetone/water/Tween 20 (49.75:49.75:0.5) solution, which is equivalent to 1000 g/ha. Once the foliage was dry, the pots were kept in the glasshouse (at 24/16° C., day/night; 14 hours light; 65% humidity), and were watered twice daily. After 12 days the test was evaluated and scored (100=total damage to plant, 0=no damage to plant).

STEME [2] = test: as above; details: 1000 g/ha, after 12 days
Procedure: as §1

AMARE [3] = test: as above; details: 1000 g/ha, after 12 days
Procedure: as §1

LOLPE [4] = test: as above; details: 1000 g/ha, after 12 days
Procedure: as §1

DIGSA [5] = test: Biological efficacy, pre-emergence glasshouse test (Table 2); details: 1000 g/ha, after 12 days
Procedure: as §1

STEME [6] = test: as above; details: 1000 g/ha, after 12 days
Procedure: as §1

AMARE [7] = test: as above; details: 1000 g/ha, after 12 days
Procedure: as §1

LOLPE [8] = test: as above; details: 1000 g/ha, after 12 days
Procedure: as §1

weeds and/or crops = test: Post-emergence biological efficacy (Table 4); details: 1000 g/ha, evaluated after 13 days; for pest or weed control at 1000 g/ha: 312 h
Summary of the method: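 Scores are visual damage (0 = none, 100 = total), read 13 days after treatment at 24/18 °C with 15 h light. Plants had been sown in standard soil and grown 14 days before a spray of compound in F50/acetone, diluted with 0.2% Genapol X080.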

IPOHE = test: Pre-emergence biological efficacy (Table 3); details: 1000 g/ha, after 13 days; for pest or weed control at 1000 g/ha: Ipomoea hederacea, 312 h, read-out: evaluation (100=total damage to plant; 0=no damage to plant)
Summary of the method: (§2)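 Pre-emergence spray one day after sowing; the compound, made up as a 50 g/l AMA-based formulation, was diluted with 0.2% Genapol X080. Visual damage rating 13 days later on a 0-100 scale, with glasshouse conditions of 24/18° C day/night and 15 h light.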

ECHCG = test: Pre-emergence biological efficacy (Table 3); details: 1000 g/ha, after 13 days; for pest or weed control at 1000 g/ha: Echinochloa crus-galli, 312 h, read-out: evaluation (100=total damage to plant; 0=no damage to plant)
Summary of the method: as §2

ABUTH = test: Pre-emergence biological efficacy (Table 3); details: after 13 days; for pest or weed control at 1000 g/ha: Abutilon theophrasti, 312 h, read-out: evaluation (100=total damage to plant; 0=no damage to plant); for evaluation (100=total damage to plant; 0=no damage to plant): 1000 g/ha
Summary of the method: as §2

ZEAMX = test: Pre-emergence biological efficacy (Table 3); details: 1000 g/ha, after 13 days; for plant injury at 1000 g/ha: 312 h, read-out: evaluation (100=total damage to plant; 0=no damage to plant)
Summary of the method: as §2

STEME [9] = test: Pre-emergence biological efficacy (Table 3); details: after 13 days; for pest or weed control at 1000 g/ha: 312 h, read-out: evaluation (100=total damage to plant; 0=no damage to plant); for evaluation (100=total damage to plant; 0=no damage to plant): 1000 g/ha
Summary of the method: as §2

AMARE [10] = test: Pre-emergence biological efficacy (Table 3); details: 1000 g/ha, after 13 days; for pest or weed control at 1000 g/ha: Amaranthus retroflexus, 312 h, read-out: evaluation (100=total damage to plant; 0=no damage to plant)
Summary of the method: as §2

[11] = STEME, read-out: damage to plant STEME (100=total damage; 0=no damage)
[12] = ZEAMX, read-out: damage to plant ZEAMX (100=total damage; 0=no damage)
[13] = Amaranthus retroflexus, AMARE, read-out: damage to plant AMARE (100=total damage; 0=no damage)
[14] = Echinochloa crus-galli, ECHCG, read-out: damage to plant ECHCG (100=total damage; 0=no damage)
[15] = Ipomoea hederacea, IPOHE, read-out: damage to plant IPOHE (100=total damage; 0=no damage)
[16] = Abutilon theophrasti, ABUTH, read-out: damage to plant ABUTH (100=total damage; 0=no damage)

Row | Compound | score (100=total damage to plant, 0=no damage to plant) (DIGSA [1]) | score (100=total damage to plant, 0=no damage to plant) (STEME [2]) | score (100=total damage to plant, 0=no damage to plant) (AMARE [3]) | score (100=total damage to plant, 0=no damage to plant) (LOLPE [4]) | score (100=total damage to plant, 0=no damage to plant) (DIGSA [5]) | score (100=total damage to plant, 0=no damage to plant) (AMARE [7]) | score (100=total damage to plant, 0=no damage to plant) (LOLPE [8]) | pest or weed control at 1000 g/ha (weeds and/or crops; [11]) [%] | pest or weed control at 1000 g/ha (weeds and/or crops; [12]) [%] | pest or weed control at 1000 g/ha (weeds and/or crops; [13]) [%] | pest or weed control at 1000 g/ha (weeds and/or crops; [14]) [%] | pest or weed control at 1000 g/ha (weeds and/or crops; [15]) [%] | pest or weed control at 1000 g/ha (IPOHE) [%] | pest or weed control at 1000 g/ha (ECHCG) [%] | pest or weed control at 1000 g/ha (ABUTH) [%] | plant injury at 1000 g/ha (ZEAMX) [%] | pest or weed control at 1000 g/ha (STEME [9]) [%] | pest or weed control at 1000 g/ha (AMARE [10]) [%] | pest or weed control at 1000 g/ha (weeds and/or crops; [16]) [%] | further results
1 | CC(C)(C)c1ccc(C(F)(F)C(=O)O)cc1 [Compound 1-1] | 0 | 0 | 40 | 0 | 0 | 0 | 0 |  |  |  |  |  |  |  |  |  |  |  |  | score (100=total damage to plant, 0=no damage to plant) (STEME [6]): 20
2 | COc1ccc(C(F)(F)C(=O)O)cc1 [Compound 1-2] | 0 | 50 | 40 | 0 | 0 | 0 | 0 |  |  |  |  |  |  |  |  |  |  |  |  | score (100=total damage to plant, 0=no damage to plant) (STEME [6]): 0
3 | COc1cccc(C(F)(F)C(=O)O)c1 [Compound 1-6] | 0 | 20 | 80 | 0 | 0 |  | 0 |  |  |  |  |  |  |  |  |  |  |  |  | score (100=total damage to plant, 0=no damage to plant) (STEME [6]): 0
4 | O=C(O)C(F)(F)c1cccc2nccnc12 [Compound 1-409, 2,2-Difluoro-2-(quinoxalin-5-yl)acetic acid] |  |  |  |  |  |  |  | 40 | 10 | 70 | 10 | 80 | 70 | 20 | 70 | 0 | 30 | 50 |  | 
5 | O=C(O)C(F)(F)c1cccc2cccc(Cl)c12 [Compound 1-416, 2-(8-chloro-1-naphthyl)-2,2-difluoro-acetic acid] |  |  |  |  |  |  |  | 90 | 20 | 80 | 10 | 80 | 90 | 40 | 80 | 10 | 80 | 90 |  | 
6 | CCOC(=O)C(F)(F)c1cccc2ccccc12 [Compound 3-397, Ethyl 2,2-difluoro-2-(1-naphthyl)acetate] | 0 | 70 | 40 | 0 | 0 | 0 | 0 | 100 | 0 | 10 | 0 | 60 | 0 | 0 | 50 | 20 | 40 | 10 | 90 | 
7 | Nc1ccc(Cl)c(Cl)c1C(F)(F)C(=O)[O-].[Li+] [Compound 5-80, Lithium;2-(6-amino-2,3-dichloro-phenyl)-2,2-difluoro-acetate] |  |  |  |  |  |  |  |  |  |  |  |  |  |  |  |  |  |  |  | damage to plant AMARE (100=total damage; 0=no damage) (weeds and/or crops; AMARE): 20; damage to plant ECHCG (100=total damage; 0=no damage) (weeds and/or crops; ECHCG): 0; damage to plant IPOHE (100=total damage; 0=no damage) (weeds and/or crops; IPOHE): 10; damage to plant STEME (100=total damage; 0=no damage) (weeds and/or crops; STEME): 10; damage to plant ZEAMX (100=total damage; 0=no damage) (weeds and/or crops; ZEAMX): 10; evaluation (100=total damage to plant; 0=no damage to plant) (IPOHE): 0; evaluation (100=total damage to plant; 0=no damage to plant) (ECHCG): 0; evaluation (100=total damage to plant; 0=no damage to plant) (ABUTH): 0; evaluation (100=total damage to plant; 0=no damage to plant) (ZEAMX): 0; evaluation (100=total damage to plant; 0=no damage to plant) (STEME [9]): 0; evaluation (100=total damage to plant; 0=no damage to plant) (AMARE [10]): 0
8 | N#Cc1ccccc1C(F)(F)C(=O)[O-].[Li+] [Compound 5-255] | 0 | 70 | 70 | 0 | 0 | 20 | 0 |  |  |  |  |  |  |  |  |  |  |  |  | 
9 | N.Nc1ccc(C(F)(F)C(=O)O)c(Cl)c1Cl [Compound 7-75, Ammonium;2-(4-amino-2,3-dichloro-phenyl)-2,2-difluoro-acetate] |  |  |  |  |  |  |  |  |  |  |  |  |  |  |  |  |  |  |  | damage to plant AMARE (100=total damage; 0=no damage) (weeds and/or crops; AMARE): 70; damage to plant ECHCG (100=total damage; 0=no damage) (weeds and/or crops; ECHCG): 60; damage to plant IPOHE (100=total damage; 0=no damage) (weeds and/or crops; IPOHE): 20; damage to plant STEME (100=total damage; 0=no damage) (weeds and/or crops; STEME): 90; damage to plant ZEAMX (100=total damage; 0=no damage) (weeds and/or crops; ZEAMX): 10; evaluation (100=total damage to plant; 0=no damage to plant) (IPOHE): 20; evaluation (100=total damage to plant; 0=no damage to plant) (ECHCG): 30; evaluation (100=total damage to plant; 0=no damage to plant) (ABUTH): 70; evaluation (100=total damage to plant; 0=no damage to plant) (ZEAMX): 0; evaluation (100=total damage to plant; 0=no damage to plant) (STEME [9]): 70; evaluation (100=total damage to plant; 0=no damage to plant) (AMARE [10]): 70
10 | O=C(O)C(F)(F)c1cccc([N+](=O)[O-])c1Cl [Compound 7-237, Ammonium 2-(2-chloro-3-nitro-phenyl)-2,2-difluoro-acetate] |  |  |  |  |  |  |  | 0 | 0 | 50 | 10 | 60 | 50 | 0 | 10 | 0 | 0 | 0 | 0 | 
11 | O=C(O)C(F)(F)c1cccc(Cl)c1[N+](=O)[O-] [Compound 7-250, Ammonium 2-(3-chloro-2-nitro-phenyl)-2,2-difluoro-acetate] |  |  |  |  |  |  |  | 100 | 20 | 100 | 30 | 80 | 90 | 30 | 90 | 50 | 100 | 100 | 90 | 
12 | Nc1c(Cl)ccc(Cl)c1C(F)(F)C(=O)O [Compound 7-254, 2-(2-amino-3,6-dichlorophenyl)-2,2-difluoroacetic acid] |  |  |  |  |  |  |  | 60 | 20 | 50 | 0 | 30 | 10 | 0 | 40 | 10 | 30 | 20 | 30 | 
